From PubChem BioAssay (NCI)
“And” between values parts separate entries of the source, which are not always exact repeats. Identical values can stand only once.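 In this assay, cells in 96-well plates receive the compound at five concentrations for 48 hours. Endpoints are linearly interpolated between the surrounding concentrations. GI50 = concentration required for 50% inhibition of growth. At the TGI there is no net growth.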

Experiments:
Assay in all cases: NCI tumour cell line growth inhibition, 48 h
LXFL 529 NSCLC = tested on: LXFL 529 NSCLC
RXF-631 renal = tested on: RXF-631 renal
DMS 114 small cell lung = tested on: DMS 114 small cell lung
DLD-1 colon = tested on: DLD-1 colon
SNB-78 CNS = tested on: SNB-78 CNS
DMS 273 small cell lung = tested on: DMS 273 small cell lung
XF 498 CNS = tested on: XF 498 CNS
HOP-18 NSCLC = tested on: HOP-18 NSCLC
MDA-N = tested on: MDA-N
P388/ADR leukemia = tested on: P388/ADR leukemia
P388 leukemia = tested on: P388 leukemia

Row | Compound | TGI (LXFL 529 NSCLC) | TGI (RXF-631 renal) | TGI (DMS 114 small cell lung) | TGI (DLD-1 colon) | TGI (SNB-78 CNS) | TGI (DMS 273 small cell lung) | TGI (XF 498 CNS) | TGI (HOP-18 NSCLC) | TGI (MDA-N) | also measured
1 | COc1ccc2c(c1O)C(=O)C(CCC(=O)O)CC2 (stereo unspecified) | > 100 µM | > 100 µM | > 100 µM | > 100 µM | > 100 µM | > 100 µM | > 100 µM | > 100 µM | – | –
2 | Nc1nc(Cl)cc(NCCCCCNc2cc(Cl)nc(N)n2)n1 | > 100 µM | > 100 µM | – | > 100 µM | 88 µM | > 100 µM | – | > 100 µM | – | –
3 | C=CCCOC(=O)CO[N+](=O)[O-] | > 100 µM | – | > 100 µM | > 100 µM | – | > 100 µM | > 100 µM | – | – | –
4 | CCC(=O)C1(c2ccccc2)CCN(C)CC1 | – | – | – | – | – | – | – | – | > 100 µM | –
5 | CCN(CC)CC.CCOc1ccc(NC(=O)N=C=[N-])cc1.[CH-]1CCCCC1.[CH-]1CCCCC1.[CH-]1CCCCC1.[Cl-].[Sn+4] | 0.0488 µM | 0.0648 µM | 0.0594 µM | 0.0478 µM | 0.373 µM | 0.0482 µM | 0.103 µM | 0.0376 µM | 0.0471 µM | GI50 (LXFL 529 NSCLC): 0.0193 µM; GI50 (RXF-631 renal): 0.0202 µM; GI50 (MDA-N): 0.0205 µM; GI50 (DMS 114 small cell lung): 0.0214 µM; GI50 (DLD-1 colon): 0.018 µM; GI50 (SNB-78 CNS): 0.0472 µM; GI50 (DMS 273 small cell lung): 0.0185 µM; GI50 (XF 498 CNS): 0.0335 µM; GI50 (HOP-18 NSCLC): 0.0135 µM
6 | C=CCCCn1ccc2ccccc21 | > 100 µM | > 100 µM | > 100 µM | > 100 µM | – | – | > 100 µM | > 100 µM | – | –
7 | C=CC(=O)N1C/C(=C\c2ccccc2)C(=O)/C(=C/c2ccccc2)C1 | 2.82 µM | – | 2.73 µM | 1.15 µM | – | 2.13 µM | 3.54 µM | 9.97 µM | 1.07 µM | GI50 (MDA-N): 0.427 µM
8 | C#Cc1c(C)c(/C=C/C(C)=C/C=C/C(C)=C/C(=O)OC)n(C)c1C | > 100 µM | > 100 µM | > 100 µM | > 100 µM | > 100 µM | – | > 100 µM | – | – | –
9 | CCCCCCCCCCCCCCCCOCC(CN(C)CCN(C)C)OCCCCCCCCCCCCCCCC (stereo unspecified) | > 100 µM | > 100 µM | > 100 µM | > 100 µM | > 100 µM | > 100 µM | – | > 100 µM | – | –
10 | CC1CN(c2ccc(Cl)cc2)CC(C)(C)OC(=O)O1 (stereo unspecified) | > 100 µM | > 100 µM | > 100 µM | > 100 µM | > 100 µM | > 100 µM | > 100 µM | – | – | –
11 | COc1ccc(/C=C/C(=O)C(C)(C)CN2CCCCC2)cc1 | 28.9 µM | – | 29.6 µM | 36.4 µM | 69 µM | 41.6 µM | 30.1 µM | 60.4 µM | – | –
12 | CC(=O)NC(CCCCN(Cc1ccccc1)C(=O)NCCCl)C(=O)NCc1ccccc1 (stereo unspecified) | > 100 µM | > 100 µM | > 100 µM | > 100 µM | – | > 100 µM | – | > 100 µM | – | –
13 | COc1cc(Br)c(CC2(C#N)c3ccccc3C3C(N2C(=O)c2ccccc2)C3(Cl)Cl)cc1OC (stereo unspecified) | > 65.5 µM | – | > 65.5 µM | > 65.5 µM | > 65.5 µM | > 65.5 µM | > 65.5 µM | > 65.5 µM | – | –
14 | C#CCSc1n[nH]c(-c2ccco2)n1 | – | – | – | – | – | – | – | – | > 100 µM | –
15 | CC(/C=C/C(=O)c1sc(-n2nc(-c3ccccc3)cc2-c2ccccc2)nc1C)=C\c1ccccc1 | > 100 µM | > 100 µM | > 100 µM | > 100 µM | – | > 100 µM | – | – | – | GI50 (DMS 273 small cell lung): > 100 µM
16 | CCOc1cc2ccc3c4cc(OC)c(OC)cc4cnc3c2cc1OCC | > 100 µM | – | > 100 µM | > 100 µM | > 100 µM | – | > 100 µM | > 100 µM | – | –
17 | CC1=C(C(=O)Nc2ccccc2C)C(c2ccc(C3C(C(=O)Nc4ccccc4C)=C(C)NC(C)=C3C(=O)Nc3ccccc3C)cc2)C(C(=O)Nc2ccccc2C)=C(C)N1 | 10.5 µM | 28.4 µM | 14 µM | 5.66 µM | 16.7 µM | 11.4 µM | 35.6 µM | – | 19.9 µM | –
18 | C[N+](C)(C)CC(=O)N/N=C(\CCC(=O)NCCc1ccccc1)CC(=O)c1ccccc1 | > 100 µM | – | > 100 µM | > 100 µM | > 100 µM | > 100 µM | > 100 µM | > 100 µM | – | –
19 | CCc1c2c(nc3cc4c(c(N)c13)OCO4)-c1cc3c(c(=O)n1C2)COC(=O)[C@]3(O)CC | – | – | – | – | – | – | – | – | > 100 µM | –
20 | CC1=C(C(=O)Nc2ccccc2)C(c2ccc([N+](=O)[O-])cc2)C(C(=O)Nc2ccccc2)=C(C)N1 | 46.5 µM | > 100 µM | 52.1 µM | > 100 µM | > 100 µM | 72.4 µM | 49.2 µM | – | – | –
21 | Cc1nnc(N=Nc2c(O)[nH]c3c(Cl)cc(Cl)cc23)n1N | > 100 µM | – | – | > 100 µM | > 100 µM | – | – | > 100 µM | – | –

Row | Compound | TGI (LXFL 529 NSCLC) | TGI (RXF-631 renal) | TGI (DMS 114 small cell lung) | TGI (DLD-1 colon) | TGI (SNB-78 CNS) | TGI (DMS 273 small cell lung) | TGI (XF 498 CNS) | TGI (HOP-18 NSCLC) | TGI (MDA-N) | also measured
22 | O=C(Cc1nc2ccccc2s1)Nc1ccc(Cl)cc1 | > 100 µM | – | – | > 100 µM | > 100 µM | > 100 µM | > 100 µM | – | – | –
23 | COC(=O)NC1(NC(=O)OC)NC(=O)c2cc(OC)c(OC)cc2N1 | – | – | – | – | – | – | – | – | 16 µM | –
24 | CCSC(SCC)c1cc2c(cc1Br)OCO2 | – | 73.7 µM | 50.4 µM | > 100 µM | > 100 µM | 20.1 µM | 59.4 µM | – | – | –
25 | COc1cc2c3c(c4ccc(OC)c(OC)c4c2cc1OC)CN1CCC[C@@H]1C3 | – | – | – | – | – | – | – | – | 12.2 µM | –
26 | CC1=CC(=O)CC(C)(C)C1(O)/C=C/C(C)=C/C(=O)O (stereo unspecified) | – | – | – | – | – | – | – | – | > 100 µM | –
27 | COc1cc(OC)c2ssc3c(OC)cc(OC)c4ssc1c2-c43 | > 100 µM | – | > 100 µM | > 100 µM | > 100 µM | > 100 µM | > 100 µM | > 100 µM | – | –
28 | O=C(NCCO)c1cc2c(cn1)[nH]c1ccccc12 | > 100 µM | > 100 µM | > 100 µM | > 100 µM | > 100 µM | > 100 µM | > 100 µM | – | – | –
29 | COc1cc2c(c(OC)c1O)-c1ccc(OC)c(=O)cc1[C@@H](NC(=O)C(F)(F)F)CC2 | – | – | – | – | – | – | – | – | 0.0628 µM | –
30 | Sc1ccc2ccccc2c1CNCc1ccccc1 | – | – | – | – | – | – | – | – | 37.6 µM | –
31 | CN(C)c1ncnc2c1Cc1ccccc1C(=O)N2C | > 100 µM | > 100 µM | > 100 µM | > 100 µM | > 100 µM | > 100 µM | > 100 µM | > 100 µM | – | –
32 | C[C@H](N)C(=O)N[C@@H]1[C@H]2C(=C(O)C[C@@H](O)[C@@H]2O)C(=O)O[C@]1(C)C(Cl)Cl | 1.53 µM | 1.93 µM | 0.98 µM and 1.28 µM | 1.62 µM and 2.43 µM | 2.1 µM | 1.57 µM and 1.44 µM | 1.05 µM and 0.31 µM | 4.39 µM and 2.76 µM | – | TGI (P388/ADR leukemia): 2.1 µM; GI50 (MDA-N): 0.438 µM; TGI (P388 leukemia): 0.453 µM; GI50 (DLD-1 colon): 0.185 µM; GI50 (DMS 273 small cell lung): 0.279 µM; GI50 (XF 498 CNS): 0.211 µM; GI50 (HOP-18 NSCLC): 0.375 µM
33 | NC(=O)/C(=C\c1ccncc1)c1cccc2ccccc12 | – | – | – | – | – | – | – | – | > 100 µM | –
34 | CO/[N+]([O-])=C\C(=O)N/C=C/C(=O)O | – | – | – | – | – | – | – | – | > 100 µM | –
35 | CCCOc1ccc(-c2nc(-c3ccc(N=Cc4ccc(N(CCOS(C)(=O)=O)CCOS(C)(=O)=O)cc4C)cc3)cs2)cc1 | – | – | – | – | – | – | – | – | > 85 µM | –
36 | COc1c2ccoc2cc2oc(=O)ccc12 | – | – | – | – | – | – | – | – | > 100 µM | –
37 | CNC1C(O)C(OC2C(N)CC(N)C(OC3OC(CN)=CCC3N)C2O)OCC1(C)O (stereo unspecified) | – | – | – | – | – | – | – | – | > 100 µM | –
38 | N.N.N.N.O=NN1CCCCCC1(P(=O)([O-])[O-])P(=O)([O-])[O-].[Pt+4].[Pt+4] | > 100 µM | – | – | > 100 µM | – | > 100 µM | – | > 100 µM | – | GI50 (LXFL 529 NSCLC): > 100 µM; GI50 (DLD-1 colon): > 100 µM; GI50 (DMS 273 small cell lung): > 100 µM; GI50 (HOP-18 NSCLC): > 100 µM
39 | C[C@H]1CC[C@H]([C@@H](C)[C@H]2[C@@H](O)C[C@H]3[C@@H]4CC[C@H]5C[C@@H](O)CC[C@]5(C)[C@H]4CC[C@]23C)NC1 | – | – | – | – | – | – | – | – | 43.8 µM | –
40 | CSc1nc(NC2OCC(OC(C)=O)C(OC(C)=O)C2OC(C)=O)c(N=C(C)C(C)=O)c(=O)n1C (stereo unspecified) | > 100 µM | > 100 µM | > 100 µM | > 100 µM | > 100 µM | > 100 µM | > 100 µM | > 100 µM | – | –
41 | CCOC(=O)Cc1nc2ccccc2s1 | 29.4 µM | 33.8 µM | – | 33.5 µM | 33 µM | 55.4 µM | 28 µM | 74.3 µM | – | –
42 | O=C1Nc2cc(Cl)ccc2N=CC1NC(=O)C(c1ccccc1)c1ccccc1Cl (stereo unspecified) | > 100 µM | > 100 µM | > 100 µM | > 100 µM | > 100 µM | > 100 µM | – | > 100 µM | – | –
